The source of these data is patent US5405843A, “Quinoline derivatives” (Mitsui Toatsu Chemicals, Incorporated, priority 1988, dated 1995).

For assay [1], the system named is Adriamycin resistant strain 2780 AD cells of human ovarian cancer A2780 cells. Description: Potentiating effect on incorporation of 3H-vincristine into adriamycin-resistant cancer cells. It counts as cell-based. The settings on record: 20 nM 3H-vincristine; for activity at 1 µg/mL / activity at 10 µg/mL: Homo sapiens, 2780AD, 2 h, control = 100, read-out: 3H-vincristine accumulation; for activity at 10 µg/mL: compound 10 μg/ml. As for the experimental part:
Potentiating Effect of the Compounds on Incorporation of Anticancer Drugs into Drug-resistant Cancer Cells
Adriamycin resistant strain 2780 AD cells of human ovarian cancer A2780 cells (A. M. Rogan et al., Science 224, 994-996, 1984) were suspended at a concentration of 1×10^6 /ml in RPMI-1640 medium supplemented with 5% fetal calf serum, and 1 ml of the cancer cell suspension was dispensed into each well of a multi-well culture plate (24 wells, […] in diameter) and then incubated at 37° C. in an atmosphere of 5% CO2. After 24 hours incubation, the medium in each well was replaced by 0.5 ml of RPMI-1640 medium supplemented containing 20 nM ^3 H-vincristine (1×10^4 dpm/pmol), 5% fetal calf serum and 10 mM Hepes buffer. Five microliters of a solution of the compound to be tested, which had been dissolved in DMSO and diluted with […] (at a concentration of 1.0 microgram/ml or 10.0 micrograms/ml), was added to each well and the incubation was continued at 37° C. in 5% CO2 for 2 hours. The resultant cells were washed in cold saline-phosphate buffer. In each well was added 0.5 ml of 0.2N NaOH, and the resulting cell suspension in each well was independently transferred into a vial and then heated in a water bath at 56° C. for 30-60 minutes to dissolve the cells. After adding 4 ml of acid aquazole 2, the amount of ^3 H-vincristine incorporated into the cells was determined by a fluid scintillation counter.

The subject of assay [2] is Vincristine-resistant strain P388/VCR cells of mouse leukemia P388 cells. As to the kind of experiment: Potentiating effect on vincristine in mice having vincristine-resistant mouse leukemia (survival). Conditions: compound 30 mg/kg + vincristine 100 ug/kg, peritoneal, once a day for 5 days; for T/C (rate of life prolongation): control = 100. The assay is classed as in vivo, mouse (female CDFI mice).

For `CN(CCN(C)C(c1ccccc1)c1ccccc1)CC(O)COc1cccc2ncccc12` (stereo not shown) [Example 3, 5-(3-[N-(2-(N-Diphenylmethyl-N-methylamino)ethyl)-N-methylamino]-2-hydroxypropoxy)quinoline], the activity at 1 µg/mL in assay [1] (compound 1 μg/ml) turned out to be 731%. Further, the activity at 10 µg/mL in assay [1] is 774%. In addition, in assay [2], the Average surviving period amounted to 11.0 ± 0.6 days and the “T/C (rate of life prolongation)” value is listed as 100%.

Take `OC(COc1cccc2ncccc12)CN1CCCN(C(c2ccccc2)c2ccccc2)CC1` (stereo not shown) [Example 4, 5-[3-(4-Diphenylmethylhomopiperazine-1-yl)-2-hydroxypropoxy]quinoline]: in assay [1] (compound 1 μg/ml), the activity at 1 µg/mL is 438%. Also, the activity at 10 µg/mL in assay [1] came to 770%. In addition, in assay [2], the Average surviving period came out at 11.8 ± 0.4 days and the “T/C (rate of life prolongation)” value is 107%.

Take `Cc1cc(C)c2c(OCC(O)CN3CCN(C(c4ccccc4)c4ccccc4)CC3)cccc2n1` (stereo not shown) [Example 5, 2,4-Dimethyl-5-[3-(4-diphenylmethylpiperazine-1-yl)-2-hydroxypropoxy]quinoline]: the activity at 1 µg/mL in assay [1] (compound 1 μg/ml) came to 732%. In assay [2], the Average surviving period is on record as 12.8 ± 0.8 days and the “T/C (rate of life prolongation)” value was 124%.

In the case of `OC(COc1cccc2ncccc12)CN1CCN(C2c3ccccc3COc3ccccc32)CC1` (stereo not shown) [Example 6, 5-[3-(4-(6,11-Dihydrodibenzo[b,e]oxepine-11-yl)piperazine-1-yl)-2-hydroxypropoxy]quinoline], in assay [2], the Average surviving period was 13.4 ± 0.7 days and the “T/C (rate of life prolongation)” value is 128%.

For `OC(COc1cccc2ncccc12)CN1CCC(C(O)(c2ccccc2)c2ccccc2)CC1` (stereo not shown) [Example 7, 5-[3-(4-(Diphenyl-hydroxymethyl)piperidine-1-yl)-2-hydroxypropoxy]quinoline], the activity at 1 µg/mL in assay [1] (compound 1 μg/ml) stood at 972%. For the same compound, in assay [2], the Average surviving period is 12.9 ± 0.5 days and the “T/C (rate of life prolongation)” value is 123%.

With `COc1ccc2c(OCC(O)CN3CCN(C(=O)C(c4ccccc4)c4ccccc4)CC3)cccc2n1` (stereo not shown) [Example 8, 5-[3-(4-(2,2-Diphenylacetyl)piperazine-1-yl) -2-hydroxypropoxy]-2-methoxyquinoline], the activity at 1 µg/mL in assay [1] (compound 1 μg/ml) is 394%. Moreover, the activity at 10 µg/mL in assay [1] amounted to 863%. Moreover, in assay [2], the Average surviving period was found to be 12.2 ± 0.6 days and the “T/C (rate of life prolongation)” value was determined as 115%.

In the case of `COc1ccc2c(OCC(O)CN3CCN(C4c5ccccc5CCc5ccccc54)CC3)cccc2n1` (stereo not shown) [Example 9, 5-[3-(4-(Dibenzosuberane-5-yl)piperazine-1-yl)-2-hydroxypropoxy]-2-methoxyquinoline], the activity at 1 µg/mL in assay [1] (compound 1 μg/ml) worked out at 721%. Further, the activity at 10 µg/mL in assay [1] amounted to 947%. In assay [2], the Average surviving period is reported as 14.2 ± 0.6 days and the “T/C (rate of life prolongation)” value worked out at 134%.

In the case of `CCN(CCN(CC)C(c1ccccc1)c1ccccc1)CC(O)COc1cccc2ncccc12` (stereo not shown) [Example 10, 5-(3-[N-(2-(N-Diphenylmethyl-N-ethylamino)ethyl)-N-ethylamino]-2-hydroxypropoxy)quinoline], the activity at 1 µg/mL in assay [1] (compound 1 μg/ml) stood at 642%. Also, in assay [1], the activity at 10 µg/mL amounted to 932%. For the same compound, in assay [2], the Average surviving period amounted to 12.3 ± 1.4 days and the “T/C (rate of life prolongation)” value came out at 112%.

On to `COc1ccc(C(c2cccc(OC)c2OC)N2CCN(CC(O)COc3cccc4ncccc34)CC2)cc1OC` (stereo not shown) [Example 11, 5-[3-(4-(2,3,3',4'-Tetramethoxydiphenylmethyl)piperazine-1-yl)-2-hydroxypropoxy]quinoline], for which the activity at 1 µg/mL in assay [1] (compound 1 μg/ml) amounted to 735%. In assay [2], the Average surviving period was found to be 12.1 ± 0.5 days and the “T/C (rate of life prolongation)” value is recorded as 115%.

For `OC(CNc1cccc2ncccc12)CN1CCN(C(c2ccccc2)c2ccccc2)CC1` (stereo not shown) [Example 27, 5-[3-(4-Diphenylmethylpiperazine-1-yl)-2-hydroxypropylamino]quinoline], in assay [2], the Average surviving period is given as 12.3 ± 0.3 days and the “T/C (rate of life prolongation)” value worked out at 119%.

In the case of `OC(CNCCNC1c2ccccc2CCc2ccccc21)COc1cccc2ncccc12` (stereo not shown) [Example 62, 5-[3-(N'-(Dibenzosuberane-5-yl)ethylenediamino)-2-hydroxypropoxy]quinoline], the activity at 1 µg/mL in assay [1] (compound 1 μg/ml) amounted to 525%.

In the case of `CN(CCN(C)C1c2ccccc2CCc2ccccc21)CC(O)COc1cccc2ncccc12` (stereo not shown) [Example 63], the activity at 1 µg/mL in assay [1] (compound 1 μg/ml) was found to be 773%.

For the compound `CSc1ccc2c(OCC(O)CN3CCN(C4c5ccccc5CCc5ccccc54)CC3)cccc2n1` (stereo not shown) [Example 64, 2-Methylthio-5-[3-(4-(dibenzosuberane-5-yl)piperazine-1-yl)-2-hydroxypropoxy]quinoline], the activity at 1 µg/mL in assay [1] (compound 1 μg/ml) amounted to 425%. Moreover, the activity at 10 µg/mL in assay [1] was determined as 900%.

In the case of `CSc1ccc2c(OCC(O)CN3CCN(C(=O)C(c4ccccc4)c4ccccc4)CC3)cccc2n1` (stereo not drawn) [Example 65, 2-Methylthio-5-[3-(4-(α,α-diphenylacetyl)piperazine-1-yl)-2-hydroxypnopoxy]quinoline], the activity at 1 µg/mL in assay [1] (compound 1 μg/ml) was determined as 297%. Also, the activity at 10 µg/mL in assay [1] was 985%.

Take `Cc1cc(C)c2c(OCC(O)CN(C)CCN(C)C3c4ccccc4CCc4ccccc43)cccc2n1` (stereo not shown) [Example 66, 2,4-Dimethyl-5-[3-(N,N'-dimethyl-N'-(dibenzosuberane-5-yl)ethylenediamino)-2-hydroxypropoxy]quinoline]: the activity at 1 µg/mL in assay [1] (compound 1 μg/ml) amounted to 488%.

With `Cc1cc(C)c2c(OCC(O)CN3CCC(=C(c4ccccc4)c4ccccc4)CC3)cccc2n1` (stereo not shown) [Example 67, 2,4-Dimethyl-5-[3-(4-diphenylmethylenepiperizine-1-yl)-2-hydroxypropoxy]quinoline], the activity at 1 µg/mL in assay [1] (compound 1 μg/ml) was found to be 730%.

For the compound `CN(CCC=C1c2ccccc2CCc2ccccc21)CC(O)COc1cccc2ncccc12` (stereo not shown) [Example 68, 5-(3[N-{3-dibenzosuberane-5-ylidene)propy}-N-methylamino-2-hydroxypropoxy)quinoline], the activity at 1 µg/mL in assay [1] (compound 1 μg/ml) was 671%.

On to `OC(CNCCC(c1ccccc1)c1ccccc1)COc1cccc2ncccc12` (stereo not shown) [Example 69, 5-[3-(3,3-Diphenylpropylamino)-2-hydroxypropoxy]quinoline], for which, in assay [1] (compound 1 μg/ml), the activity at 1 µg/mL worked out at 738%. Also, the activity at 10 µg/mL in assay [1] came out at 941%.

As for `OC(CNCC(c1ccccc1)c1ccccc1)COc1cccc2ncccc12` (stereo not shown) [Example 70, 5-[3-(2,2-Diphenylethylamino)-2-hydroxypropoxy]quinoline], the activity at 1 µg/mL in assay [1] (compound 1 μg/ml) turned out to be 252%. The activity at 10 µg/mL in assay [1] stood at 960%.

With `CS(=O)(=O)c1ccc2c(OCC(O)CN3CCN(C4c5ccccc5CCc5ccccc54)CC3)cccc2n1` (stereo not shown) [Example 71, 2-Methylsufonyl-5-[3-(4-(dibenzosuberane-5-yl)piperazine-1-yl)-2-hydroxypropoxy]quinoline], the activity at 1 µg/mL in assay [1] (compound 1 μg/ml) was 501%. In assay [1], the activity at 10 µg/mL was 921%.

In the case of `OC(COc1cccc2ncccc12)CN1CCN(C2c3ccccc3Oc3ccccc32)CC1` (stereo not shown) [Example 72, 5-[3-(4-(Xanthene-9-yl)piperazine-1-yl)-2-hydroxypropoxy]quinoline], the activity at 1 µg/mL in assay [1] (compound 1 μg/ml) was 112%. For the same compound, the activity at 10 µg/mL in assay [1] came out at 144%.

Consider `OC(CSc1cccc2ncccc12)CN1CCN(C(c2ccccc2)c2ccccc2)CC1` (stereo not shown) [Example 74, 5-[3-(4-Diphenylmethylpiperazine-1-yl)-2-hydroxypropylthio]qunoline], for which the 3H-vincristine accumulation in assay [1] (compound 1 μg/ml, 2 hours, control = 100, 120 min) amounted to 626%.

On to `OC(CSc1cccc2ncccc12)CN1CCN(C2c3ccccc3CCc3ccccc32)CC1` (stereo not shown) [Example 75, 5-[3-(4-(Dibenzosuberane-5-yl)piperazine-1-yl)-2-hydroxy-propylthio]quinoline], for which the activity at 1 µg/mL in assay [1] (compound 1 μg/ml) came out at 587%.

Turning to `OC(COc1cccc2nc(C(F)(F)F)cc(C(F)(F)F)c12)CN1CCN(C2c3ccccc3CCc3ccccc32)CC1` (stereo not shown) [Example 76, 5-[3-(4-(Dibenzosuberane-5-yl)piperazine-1-yl)-2-hydroxypropoxy]-2,4-bis(trifluoromethyl)quinoline], in assay [1] (compound 1 μg/ml), the activity at 1 µg/mL is 130%. The activity at 10 µg/mL in assay [1] turned out to be 304%.

Consider `OC(COc1cccc2ncccc12)CN1CCC(=C2c3ccccc3C=Cc3ccccc32)CC1` (stereo not shown) [Example 77, 5-[3-(4-(Dibenzosuberene-5-ylidene)piperidine-1-yl)2-hydroxypropoxy]quinoline], for which, in assay [2], the Average surviving period stood at 13.8 ± 1.2 days and the “T/C (rate of life prolongation)” value stood at 129%.

Turning to `OC(COc1cccc2ncccc12)CN1CCC(C2(O)c3ccccc3C=Cc3ccccc32)CC1` (stereo not shown) [Example 79, 5-[2-Hydroxy-3-(4-(5-hydroxydibenzosuberene-5-yl)piperidine-1-yl)propoxy]quinoline], the activity at 1 µg/mL in assay [1] (compound 1 μg/ml) stood at 841%. In assay [1], the activity at 10 µg/mL came out at 963%.
